In patent publication US8039454B2, “Macrolide compounds with antibiotic and antineoplastic properties” (Weihe Pharmaceuticals Co. Ltd., priority 2006, dated 2011):
Converted amounts (≈) assume the structure as drawn.

Columns and labels:
Test in all cases: MIC by standard dilution method in Tryptic Soy Broth
Assay type in all cases: cell-based
[1] = tested on: S. aureus MSRA (clinical isolates of methicillin-resistant strain); conditions: Staphylococcus aureus, 24 h
Description: (§1) To determine minimum inhibitory concentration (MIC) of the WBI-3001, the standard dilution method was used. The tests were conducted at 35° C. and the MICs were determined after 24 h incubation.

Streptococcus pyogenes = conditions: 35° C., 24 h incubation
Description: as §1

Enterococcus faecalis = conditions: 35° C., 24 h incubation
Description: as §1

Pseudomonas aeruginosa = conditions: 35° C., 24 h incubation
Description: as §1

[2] = tested on: Staphylococcus epidermidis; conditions: 35° C., 24 h incubation
Description: as §1

Escherichia coli = conditions: 35° C., 24 h incubation
Description: as §1

Question: For CC[C@H]1OC(=O)[C@H](C)[C@@H](O[C@H]2C[C@@](C)(OC)[C@@H](O)[C@H](C)O2)[C@H](C)[C@@H](O[C@@H]2O[C@H](C)C[C@H](N(C)C)[C@H]2O)[C@](C)(O)C[C@@H](C)C(=O)[C@H](C)[C@@H](O)[C@]1(C)O [Erythromycin], which MIC [1] is on record?
Answer: > 32 µg/mL

Question: What about the MIC (Streptococcus pyogenes) of the same molecule?
Answer: 0.03 µg/mL (≈ 0.0409 µM)

Question: What about the MIC (Enterococcus faecalis) of the same molecule?
Answer: > 32 µg/mL

Question: And the MIC (Pseudomonas aeruginosa)?
Answer: > 32 µg/mL

Question: What about the MIC [2] of the same molecule?
Answer: 0.25 µg/mL (≈ 0.341 µM)

Question: What about the MIC (Escherichia coli) of the same molecule?
Answer: 1 µg/mL (≈ 1.36 µM)
